Measurements: PubChem BioAssay (NCI)
Values joined by “and” are separate entries in the source; they are usually repeats but may differ in a detail not shown here. Identical values can stand only once.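 Five concentrations, 48 hours, 96-well plates. GI50 marks 50% less growth. TGI: concentration producing complete growth inhibition.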

These compounds were tested on MDA-MB-468 breast (assay: NCI tumour cell line growth inhibition, 48 h).
In the case of `O=C1c2cc3c(cc2-c2c1c1ccc(Cl)cc1c(=O)n2CCCn1ccnc1)OCO3`, the GI50 is reported as < 0.01 µM and the TGI is reported as 0.0144 µM.
`C=C(C)[C@@H]1CC[C@]2(C(=O)NS(=O)(=O)c3ccccc3)CC[C@]3(C)[C@H](CC[C@@H]4[C@@]5(C)CC[C@H](OC(=O)NS(=O)(=O)c6ccccc6)C(C)(C)[C@@H]5CC[C@]43C)[C@@H]12` was tested, and the GI50 was 2.22 µM and the TGI was 10.2 µM.
For `Cc1ccc(C(=O)NC2CC2)cc1-c1ccc2[nH]ncc2c1`, the GI50 was > 23 µM and the TGI was > 25 µM.
Compound `O=C(/C=C/C12c3ccccc3C(c3ccccc31)C1C(=O)NC(=O)C12)c1ccccc1` (stereo not drawn) has a GI50 of 1.72 µM and a TGI of 3.68 µM.
Work on `C[N+](C)=c1ccc2nc3c(cc(NCCCNc4cc5oc6cc(=[N+](C)C)ccc-6nc5c5ccccc45)c4ccccc43)oc-2c1` yielded a GI50 of 0.193 µM and a TGI of 1.35 µM.
`CS(=O)(=O)N(c1cc(-c2ccc3ncnc(Nc4ccc(F)c(Cl)c4)c3c2)cnc1Cl)S(C)(=O)=O` gave a GI50 of 0.467 µM and a TGI of 2.55 µM.
With `CC(C)(C)OC(=O)Nc1ccc2c(c1)C(NC(=O)Nc1cccc(C#N)c1)CC(C)(C)O2` (stereo not drawn) the GI50 was 0.381 µM and the TGI was 9.9 µM.
In the case of `O=c1[nH]c(=O)n(C2CC(O)C(CO)O2)cc1C(F)(F)F` (stereo not drawn), the GI50 is reported as > 85.4 µM and the TGI is reported as > 100 µM.
With `COc1cc(C(=O)c2cocc2C(=O)c2ccc3c(c2)OCO3)cc(OC)c1OC` the GI50 was 4.05 µM and the TGI was > 100 µM.
Work on `c1ccc2c(c1)cc1ccc3cccc4ccc2c1c34` yielded a GI50 of 0.157 µM and a TGI of 0.312 µM.
With `COc1cc(NCCCCCN=C(N)NC(N)=NC(C)C)c2ncccc2c1` the GI50 was 0.0903 µM and the TGI was 0.594 µM.
`O=C(Nc1cccc(C(F)(F)F)c1)Oc1ccc(Cl)c2cccnc12` was tested, and the GI50 was 1.79 µM and the TGI was 4.28 µM.
With `CCN(CC)CCCCNc1c2ccc(Cl)cc2nc2ccc(OC)cc12` the GI50 was 0.317 µM and the TGI was 1.83 µM.
`CNC(=O)c1cncc(/C=C/c2ccccc2Cl)c1` was tested, and the GI50 was 9.17 µM and the TGI was > 25 µM.
With `CC(C)(C)OC(=O)N[C@@H](Cc1ccccc1)C(=O)N(Cc1ccccc1)C1(C(=O)NCc2ccccc2)CCN(Cc2ccccc2)CC1` the GI50 was 1.62 µM and the TGI was 5.91 µM.
Work on `CCCCn1c(=O)c(/C=C/C(=O)/C=C/c2cc3ccccc3n(CCCC)c2=O)cc2ccccc21` yielded a GI50 of 1.64 µM and a TGI of 3.76 µM.
With `CC(C)c1ccc(NC(=O)Cc2ccc(Nc3ncnc4cc(-c5cnn(CCN(C)C)c5)ccc34)cc2)cc1` the GI50 was 1.34 µM and the TGI was 3.72 µM.
In the case of `COc1ccc(S(=O)(=O)N(C(C)=O)c2ccccc2/C=C/c2cc[n+]([O-])cc2)cc1`, the GI50 is reported as 0.461 µM and the TGI is reported as > 10 µM.
`Nc1cccc2c1C(=O)c1cccc(NC(=O)c3ccccc3)c1C2=O` showed a GI50 of 0.577 µM and a TGI of 7.03 µM.
Work on `CC[C@H](C)[C@H](NC(=O)c1cccn1C)C(=O)N(C)[C@H](C[C@@H](OC(C)=O)c1nc(C(=O)N[C@@H](Cc2ccccc2)C[C@H](C)C(=O)OC)cs1)C(C)C` yielded a GI50 of 0.0683 µM and a TGI of 10.8 µM.
With `ClC(Cl)c1nc(-c2cccs2)n2nc(-c3ccccc3)cc2n1` the GI50 was 0.224 µM and the TGI was 0.688 µM.
With `O=P(O)(O)OCC1OC(n2cnc3c(NCc4ccccc4)ncnc32)C(O)C1O` (stereo not drawn) the GI50 was 0.925 µM and the TGI was 4.12 µM.
With `COC(=O)[C@H](Cc1cn(C)cn1)NC(=O)[C@H](Cc1ccccc1)NC(=O)Nc1cc(C(F)(F)F)cc(C(F)(F)F)c1` the GI50 was 4.4 µM and 4.23 µM and the TGI was 17.7 µM.
`COc1ccc2nc3cc(Cl)ccc3c(Nc3cc(CN4CCCC4)c(O)c(CN4CCCC4)c3)c2n1` gave a GI50 of 1.33 µM and a TGI of 2.76 µM.
`C=C1CCC2C3(C)COC(c4ccccc4Cl)OC3CCC2(C)C1/C=C/C1=CCOC1=O` (stereo not drawn) was tested, and the GI50 was 4.96 µM and the TGI was > 100 µM.
With `COC(=O)N[C@H]1CCc2c(Cl)c(OC)c(OC)c(OC)c2-c2ccc(SC)c(=O)cc21` the GI50 was < 0.01 µM and the TGI was 23.1 µM.
For `CC/C(=C/c1ccc(OC)cc1OC)[N+](=O)[O-]`, the GI50 was 2.02 µM and the TGI was 4.3 µM.
Compound `Cc1cc(O)c(-c2ccc([C@@H](C)CN(C)C)cc2)c2c1[nH]c(=O)c1sccc12` has a GI50 of 0.514 µM and a TGI of 3.94 µM.
With `COc1ccc2[nH]c(C(=O)OCc3ccc4c(Cl)cc(Cl)c(O)c4n3)cc2c1` the GI50 was 1.36 µM and the TGI was 2.77 µM.
With `CCn1c(-c2nonc2N)nc2c(N3CCCC3)nccc21` the GI50 was 8.92 µM and the TGI was > 25 µM.
Compound `CCn1c2ccccc2c2cc(C(=O)c3ccc(C)c4ccccc34)ccc21` has a GI50 of 0.291 µM and a TGI of 0.918 µM.
With `COc1cc2nccc(Oc3ccc(NC(=O)c4cn(C(C)C)c(=O)n(-c5ccc(F)cc5)c4=O)cc3F)c2cc1OC` the GI50 was > 100 µM and the TGI was > 100 µM.
For `COC[C@]12CCC(C)(C)C[C@H]1C1=CC[C@@H]3[C@@]4(C)CCCNC(C)(C)[C@@H]4CC[C@@]3(C)[C@]1(C)CC2`, the GI50 was 1.53 µM and the TGI was 3.23 µM.
`CNC(=O)c1ccccc1Nc1nc(Nc2ccc3c(c2OC)CCC[C@H](N2CCN(CCO)CC2)C3)ncc1Cl` was tested, and the GI50 was 1.21 µM and 0.696 µM and the TGI was 3.33 µM and 2.5 µM.
